These results are taken from US10022359B2, “1,9-diazaspiro undecane compounds having multimodal activity against pain” (LABORATORIOS DEL DR. ESTEVE S.A., priority 2014, dated 2018).

This assay concerns the target human σ1 receptor and human μ-opioid receptor. Put plainly: Human σ1 receptor and human μ-opioid receptor radioligand assays (dual binding). The settings on record: combined class for Ki-μ ([3H]-DAMGO, transfected CHO-K1 membranes) and Ki-σ1 ([3H](+)-pentazocine, transfected HEK-293 membranes).
For the compound `O=C(c1ccccn1)N1CCOCC12CCN(CCc1ccccc1)CC2` [Example 11, (9-phenethyl-4-oxa-1,9-diazaspiro[5.5]undecan-1-yl)(pyridin-2-yl)methanone], the Ki (usually the dissociation constant of the complex between target and ligand, obtained from inhibition or displacement) was no less than 500 nM.

In the case of `O=C(c1ccncc1)N1CCOCC12CCN(CCc1ccccc1)CC2` [Example 13, (9-phenethyl-4-oxa-1,9-diazaspiro[5.5]undecan-1-yl)(pyridin-4-yl)methanone], the Ki is no less than 500 nM.

On to `O=C(c1cccnc1)N1CCOCC12CCN(CCc1ccccc1)CC2` [Example 14, (9-phenethyl-4-oxa-1,9-diazaspiro[5.5]undecan-1-yl)(pyridin-3-yl)methanone], for which the Ki was no less than 500 nM.

Regarding `O=C(c1cscn1)N1CCOCC12CCN(CCc1ccccc1)CC2` [Example 16, (9-phenethyl-4-oxa-1,9-diazaspiro[5.5]undecan-1-yl)(thiazol-4-yl)methanone], the Ki was no less than 500 nM.

As for `O=C(Cc1ccccn1)N1CCOCC12CCN(CCc1ccccc1)CC2` [Example 17, 1-(9-phenethyl-4-oxa-1,9-diazaspiro[5.5]undecan-1-yl)-2-(pyridin-2-yl)ethanone], the Ki is no less than 500 nM. Consider `O=C(Cc1ccncc1)N1CCOCC12CCN(CCc1ccccc1)CC2` [Example 19, 1-(9-phenethyl-4-oxa-1,9-diazaspiro[5.5]undecan-1-yl)-2-(pyridin-4-yl)ethanone], for which the Ki was no less than 500 nM. In the case of `O=C(c1cncs1)N1CCOCC12CCN(CCc1ccccc1)CC2` [Example 20, (9-phenethyl-4-oxa-1,9-diazaspiro[5.5]undecan-1-yl)(thiazol-5-yl)methanone], the Ki was no less than 500 nM. As to `O=C(Cc1cccnc1)N1CCOCC12CCN(CCc1ccccc1)CC2` [Example 22, 1-(9-phenethyl-4-oxa-1,9-diazaspiro[5.5]undecan-1-yl)-2-(pyridin-3-yl)ethanone], the Ki was no less than 500 nM.

For the compound `Fc1cnccc1CN1CCOCC12CCN(CCc1ccccc1)CC2` [Example 31, 1-((3-fluoropyridin-4-yl)methyl)-9-phenethyl-4-oxa-1,9-diazaspiro[5.5]undecane], the Ki is no less than 500 nM.

Consider `O=[N+]([O-])c1cccc(CCN2CCC3(CC2)COCCN3c2ccccc2)c1` [Example 41, 9-(3-nitrophenethyl)-1-phenyl-4-oxa-1,9-diazaspiro[5.5]undecane], for which the Ki was no less than 500 nM. To `O=C(CN1CCC2(CC1)COCCN2C(=O)c1ccccc1)c1ccccc1` [Example 45, 2-(1-benzoyl-4-oxa-1,9-diazaspiro[5.5]undecan-9-yl)-1-phenylethanone] belongs no less than 500 nM; to `Nc1cccc(CCN2CCC3(CC2)COCCN3c2ccccc2)c1` [Example 50, 3-(2-(1-phenyl-4-oxa-1,9-diazaspiro[5.5]undecan-9-yl)ethyl)aniline], no less than 500 nM. The value for `O=C(c1ccccc1)N1CCOCC12CCN(CC(O)c1ccccc1)CC2` (stereo not shown) [Example 51, (9-(2-hydroxy-2-phenylethyl)-4-oxa-1,9-diazaspiro[5.5]undecan-1-yl)(phenyl)methanone] was no less than 500 nM.
